Data taken from ChEMBL document CHEMBL1140044, “Structure-activity relationship study on anti-HIV 6-desfluoroquinolones” (J Med Chem, 2008).
≈ marks a conversion by molar mass, not a printed value. Calls of active or inactive are those of the source. The rule behind the calls is not given here.

Tests used:
[1] = Selectivity index, ratio of CC50 for human MT4 cells to EC50 for HIV1 3B; format: toxicity, cell-based; conditions: read-out: Ratio CC50/EC50
[2] = Selectivity index, ratio of CC50 for human MT4 cells to EC50 for HIV2 ROD; format: toxicity, cell-based; conditions: read-out: Ratio CC50/EC50
[3] = Selectivity index, ratio of CC50 for human CEM cells to EC50 for HIV1 3B; format: toxicity, cell-based, CCRF-CEM; conditions: read-out: Ratio CC50/EC50
[4] = Cytotoxicity against mock-infected human CEM cells by Coulter counter; format: cell-based; conditions: mock-infected CEM (CCRF-CEM) cells
[5] = test system: Human immunodeficiency virus 2; assay: Antiviral activity against HIV2 ROD in CEM cells assessed as inhibition of virus-induced syncytium formation after 4 days by microscopy; format: functional, organism-based; conditions: Human immunodeficiency virus 2, ROD, CCRF-CEM, 96 h
[6] = Cytotoxicity against mock-infected human MT4 cells after 5 days by MTT assay; format: cell-based
[7] = Selectivity index, ratio of CC50 for human CEM cells to EC50 for HIV2 ROD; format: toxicity, cell-based, CCRF-CEM; conditions: read-out: Ratio CC50/EC50
[8] = test system: Human immunodeficiency virus 1; assay: Antiviral activity against HIV1 3B in MT4 cells assessed as inhibition of virus-induced cytopathogenicity by MTT assay; format: functional, organism-based; conditions: Human immunodeficiency virus 1, 3B
[9] = test system: Human immunodeficiency virus 2; assay: Antiviral activity against HIV2 ROD in MT4 cells assessed as inhibition of virus-induced cytopathogenicity by MTT assay; format: functional, organism-based; conditions: Human immunodeficiency virus 2, ROD
[10] = test system: Human immunodeficiency virus 1; assay: Antiviral activity against HIV1 3B in CEM cells assessed as inhibition of virus-induced syncytium formation after 4 days by microscopy; format: functional, organism-based; conditions: Human immunodeficiency virus 1, 3B, CCRF-CEM, 96 h
[11] = test system: Human immunodeficiency virus 1; assay: Antiviral activity against HIV1 3B in PBMC assessed as inhibition of p24 production after 7 days by ELISA; format: functional, organism-based; conditions: Human immunodeficiency virus 1, 3B, 168 h
[12] = Selectivity index, ratio of CC50 for human PBMC cells to EC50 for HIV1 3B; format: toxicity, cell-based; conditions: read-out: Ratio CC50/EC50
[13] = Cytotoxicity against mock-infected human PBMC cells by trypan blue exclusion assay; format: cell-based
[14] = target: T1, Protein Tat (Human immunodeficiency virus type 1 group M subtype B (isolate HXB2)(HIV-1)) (UniProt P04608); assay: Inhibition of HIV1 Tat-mediated LTR promoter transactivation in Tat/GFP plasmid expressed in Jurkat cells assessed as GFP gene expression by FACS analysis; format: cell-based; conditions: Human immunodeficiency virus 1
T1 sequence (whole entry): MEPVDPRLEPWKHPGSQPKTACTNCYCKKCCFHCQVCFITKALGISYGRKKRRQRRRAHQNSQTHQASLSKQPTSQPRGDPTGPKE

[15] = test system: Human immunodeficiency virus 1; assay: Antiviral activity against HIV1 3B in MT4 cells assessed as virus p24 antigen production administered at 5 hrs post infection by ELISA; format: functional, organism-based
[16] = test system: Human immunodeficiency virus 1; assay: Antiviral activity against HIV1 3B in MT4 cells assessed as virus p24 antigen production administered at 16 hrs post infection by ELISA; format: functional, organism-based

EC50 [5] [µg/mL] | EC50 [10] [µg/mL] | EC50 [11] [µg/mL] | Activity [14] | SMILES | selectivity ratio [1] | selectivity ratio [2] | selectivity ratio [3] | CC50 [4] [µg/mL] | CC50 at 120 h [6] [µg/mL] | selectivity ratio [7] | EC50 [8] [µg/mL] | EC50 [9] [µg/mL] | selectivity ratio [12] | CC50 [13] [µg/mL] | Activity [15] | Activity [16]
0.075 (≈ 0.175 µM) | 0.036 (≈ 0.0838 µM) |  |  | Cn1cc(C(=O)O)c(=O)c2cc(N)c(N3CCN(c4ccc5ccccc5n4)CC3)cc21 | 6 | 10 | 115 | 4.15 (≈ 9.66 µM) | 0.21 (≈ 0.489 µM) | 55 | 0.035 (≈ 0.0815 µM) | 0.022 (≈ 0.0512 µM) |  |  |  | 
0.09 (≈ 0.246 µM) | 0.051 (≈ 0.14 µM) | 0.094 (≈ 0.257 µM) |  | Nc1cc2c(=O)c(C(=O)O)c[nH]c2cc1N1CCN(c2ccccn2)CC1 | 5 | 14 | 93 | 4.75 (≈ 13 µM) | 2.16 (≈ 5.91 µM) | 53 | 0.45 (≈ 1.23 µM) | 0.16 (≈ 0.438 µM) | 13 | 1.28 (≈ 3.5 µM) |  | 
 |  |  |  | Cn1ccc(=O)c2cc(N)c(N3CCN(c4ccccn4)CC3)cc21 | < 1 | < 1 |  |  | 105 (≈ 313 µM) |  | > 105 | > 104 |  |  |  | 
 |  |  |  | Cn1ccc(=O)c2cc(N)c(N3CCN(c4nc5ccccc5o4)CC3)cc21 | < 1 | < 1 |  |  | 72.1 (≈ 192 µM) |  | > 72.1 | > 72.1 |  |  |  | 
0.28 (≈ 0.65 µM) | 0.05 (≈ 0.116 µM) |  |  | Cn1cc(C(=O)O)c(=O)c2cc(N)c(N3CCN(c4cnc5ccccc5n4)CC3)cc21 | 18 | 17 | > 80 | > 4 | 3.2 (≈ 7.43 µM) | > 14 | 0.18 (≈ 0.418 µM) | 0.19 (≈ 0.441 µM) |  |  |  | 
 |  |  |  | CO/N=C(\C)c1cn(C)c2cc(N3CCN(c4ccccn4)CC3)c(N)cc2c1=O | < 1 | < 1 |  |  | 92.7 (≈ 228 µM) |  | > 92.6 | > 92.6 |  |  |  | 
0.23 (≈ 0.567 µM) | 0.3 (≈ 0.74 µM) | 0.16 (≈ 0.395 µM) |  | Nc1cc2c(=O)c(C(=O)O)c[nH]c2cc1N1CCN(c2nc3ccccc3o2)CC1 | 11 | 7 | 11 | 3.17 (≈ 7.82 µM) | 1.95 (≈ 4.81 µM) | 14 | 0.23 (≈ 0.567 µM) | 0.28 (≈ 0.691 µM) | 7 | 1.12 (≈ 2.76 µM) |  | 
 |  |  |  | Cn1cc(C(=O)NCc2ccc(Cl)cc2)c(=O)c2cc(N)c(N3CCN(c4ccccn4)CC3)cc21 |  | 1 |  |  | > 125 |  | > 125 | > 125 |  |  |  | 
 |  |  |  | Cn1cc(C(=O)O)c(=O)c2cc(N)c(N3CCN(Cc4ccccn4)CC3)cc21 |  |  |  |  | > 125 |  | > 125 | > 125 |  |  |  | 
 |  |  |  | Nc1cc2c(=O)c(C(=O)O)c[nH]c2cc1N1CCN(c2cccc(C(F)(F)F)c2)CC1 | 4 | 4 |  |  | 1.64 (≈ 3.79 µM) |  | 0.38 (≈ 0.879 µM) | 0.46 (≈ 1.06 µM) |  |  |  | 
8 (≈ 21.6 µM) | 2.6 (≈ 7.02 µM) |  |  | Cn1cc(C(=O)O)c(=O)c2ccc(N3CCN(c4nccs4)CC3)cc21 | > 12 | > 10 | ≥ 38 | ≥ 100 | > 125 | ≥ 12 | 10 (≈ 27.1 µM) | 12.7 (≈ 34.3 µM) |  |  |  | 
 |  |  |  | CCN(CCNc1cc2c(cc1N)c(=O)c(C(=O)O)cn2C)c1ccccn1 |  |  |  |  | 16.9 (≈ 44.2 µM) |  | > 16.9 | > 16.9 |  |  |  | 
14 (≈ 34.6 µM) | 3.35 (≈ 8.28 µM) |  | Dose-dependent effect | Cn1cc(C(=O)O)c(=O)c2ccc(N3CCN(c4nc5ccccc5o4)CC3)cc21 | > 22 | > 11 | > 30 | > 100 | > 125 | > 7 | 5.76 (≈ 14.2 µM) | 11.9 (≈ 29.3 µM) |  |  |  | 
 |  |  |  | C/C(=N\O)c1cn(C)c2cc(N3CCN(c4ccccn4)CC3)c(N)cc2c1=O |  |  |  |  | > 125 |  | > 125 | > 125 |  |  |  | 
 |  |  |  | CC(C)c1nc(CN(C)C(=O)N[C@H](C(=O)N[C@@H](Cc2ccccc2)C[C@H](O)[C@H](Cc2ccccc2)NC(=O)OCc2cncs2)C(C)C)cs1 |  |  |  |  |  |  |  |  |  |  | Active | Active
